Assay results as given in patent publication US6274557A, “Inhibition of nitric oxide synthase by amino acids and dipeptides” (Northwestern University, priority 1999, dated 2001).
Read-outs that look alike come from different tables or passages of the source. Peptide text beside a SMILES is read from it.

Tests used:
[1] = target: T1, recombinant bovine endothelial nitric oxide synthase (eNOS) (Bos taurus, UniProt P29473); assay: Hemoglobin capture assay of nitric oxide formation, eNOS; format: biochemical; conditions: for Ki: Table 2, Dixon plots
T1 construct: made in house; host or cells: E. coli
Protocol: (§1) Nitric oxide formation was measured by using the hemoglobin capture assay. […] The production of nitric oxide by eNOS was measured as described. […] All assays were in a final volume of 600 μL and were initiated with enzyme.
(§2) The reversible inhibition of NOS by the dipeptide analogs was studied under initial rate conditions with the hemoglobin assay as described above. […] With various L-arginine and inhibitor concentrations.

[2] = target: recombinant murine macrophage nitric oxide synthase (iNOS) (Mus musculus, UniProt P29477); assay: Hemoglobin capture assay of nitric oxide formation, iNOS; conditions: for iNOS/eNOS selectivity: Table 2 dipeptides; for Ki: read-out: Ki iNOS, Table 2, Dixon plots, ^a = uncompetitive inhibition
Protocol: as §1, §2

[3] = target: neuronal nitric oxide synthase (nNOS) from bovine brain (Bos taurus, UniProt A0A3Q1M6M2); assay: Hemoglobin capture assay of nitric oxide formation, nNOS; conditions: for nNOS/iNOS selectivity / nNOS/eNOS selectivity: Table 2 dipeptides; for nNOS/iNOS selectivity: in favor of nNOS over iNOS; for nNOS/eNOS selectivity: nNOS over eNOS; for most potent inhibitors (based on isoform inhibition data): dipeptide amides of Table 3
Sequence of neuronal nitric oxide synthase (nNOS) from bovine brain (A0A3Q1M6M2 entry or part of it): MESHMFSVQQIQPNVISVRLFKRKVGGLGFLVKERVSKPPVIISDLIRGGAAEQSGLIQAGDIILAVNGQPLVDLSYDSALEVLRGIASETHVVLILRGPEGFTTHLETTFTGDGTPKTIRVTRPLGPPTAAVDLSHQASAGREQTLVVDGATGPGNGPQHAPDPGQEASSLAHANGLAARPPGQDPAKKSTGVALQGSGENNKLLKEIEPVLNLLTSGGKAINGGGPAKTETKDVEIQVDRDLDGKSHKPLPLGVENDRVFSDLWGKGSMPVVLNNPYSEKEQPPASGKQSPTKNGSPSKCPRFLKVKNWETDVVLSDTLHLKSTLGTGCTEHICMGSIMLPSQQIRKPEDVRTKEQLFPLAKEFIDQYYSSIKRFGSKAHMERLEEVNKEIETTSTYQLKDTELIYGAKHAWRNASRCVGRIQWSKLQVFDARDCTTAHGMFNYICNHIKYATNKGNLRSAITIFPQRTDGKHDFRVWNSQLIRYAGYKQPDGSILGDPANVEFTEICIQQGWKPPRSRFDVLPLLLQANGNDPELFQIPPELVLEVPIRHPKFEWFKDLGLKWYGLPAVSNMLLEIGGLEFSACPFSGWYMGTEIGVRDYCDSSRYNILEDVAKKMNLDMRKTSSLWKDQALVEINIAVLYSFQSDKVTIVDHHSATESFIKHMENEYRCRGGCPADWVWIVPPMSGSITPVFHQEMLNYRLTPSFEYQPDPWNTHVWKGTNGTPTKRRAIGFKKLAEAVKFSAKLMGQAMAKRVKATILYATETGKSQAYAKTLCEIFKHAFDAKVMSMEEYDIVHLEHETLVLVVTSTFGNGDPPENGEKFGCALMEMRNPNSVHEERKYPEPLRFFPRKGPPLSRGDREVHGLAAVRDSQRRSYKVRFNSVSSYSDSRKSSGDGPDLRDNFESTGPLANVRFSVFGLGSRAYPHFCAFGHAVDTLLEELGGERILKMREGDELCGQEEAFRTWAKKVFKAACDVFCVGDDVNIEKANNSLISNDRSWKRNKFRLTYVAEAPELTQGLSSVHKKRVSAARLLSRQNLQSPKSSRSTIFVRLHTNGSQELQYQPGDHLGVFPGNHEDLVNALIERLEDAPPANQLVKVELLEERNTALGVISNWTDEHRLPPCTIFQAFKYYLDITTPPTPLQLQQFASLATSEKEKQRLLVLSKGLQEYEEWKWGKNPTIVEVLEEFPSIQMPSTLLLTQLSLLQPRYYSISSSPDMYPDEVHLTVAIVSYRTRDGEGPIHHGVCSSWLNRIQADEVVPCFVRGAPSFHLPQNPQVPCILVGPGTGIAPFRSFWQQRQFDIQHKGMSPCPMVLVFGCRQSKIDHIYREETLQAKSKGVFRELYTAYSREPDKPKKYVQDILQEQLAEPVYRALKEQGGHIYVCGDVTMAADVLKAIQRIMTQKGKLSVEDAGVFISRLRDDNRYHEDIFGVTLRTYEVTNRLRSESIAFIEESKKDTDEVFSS
Protocol: as §1, §2

[4] = read-out: Ki nNOS, Table 2, Dixon plots

## N=C(NCCC[C@H](N)C(=O)N[C@@H](Cc1ccccc1)C(=O)OCc1ccccc1)N[N+](=O)[O-] [compound 5, L-Arg^NO2 -L-Phe-OBn]
[1]
  Ki: 125 µM
[2]
  iNOS/eNOS selectivity: 6.9
  Ki: 18 µM
[3]
  nNOS/iNOS selectivity: 0.33
  nNOS/eNOS selectivity: 2.3
[3]; [4]
  Ki: 55 µM

## COC(=O)[C@H](CCCNC(=N)N[N+](=O)[O-])NC(=O)[C@@H](N)Cc1ccccc1 [compound 4, L-Phe-L-Arg^NO2 -OMe] (HELM PEPTIDE1{F.[N=C(NCCC[C@H](N[*:1])C(=O)[*:2])N[N+](=O)[O-]].[CO[*:1]]}$$$$V2.0)
[1]
  Ki: 1350 µM
[2]
  iNOS/eNOS selectivity: 6.6
  Ki: 204 µM
[3]
  nNOS/iNOS selectivity: 0.55
  nNOS/eNOS selectivity: 3.6
[3]; [4]
  Ki: 370 µM

## N=C(NCCC[C@@H](NC(=O)[C@H](N)Cc1ccccc1)C(=O)O)N[N+](=O)[O-] [compound 13, D-Phe-D-Arg^NO2] (HELM PEPTIDE1{[dF].[N=C(NCCC[C@@H](N[*:1])C(=O)O)N[N+](=O)[O-]]}$$$$V2.0)
[1]
  Ki: 90 µM
[1]; Table 2 dipeptides
  selectivity of eNOS over iNOS: 152 fold
[2]
  iNOS/eNOS selectivity: 0.0066
  Ki: 13600 µM
[3]
  nNOS/iNOS selectivity: 800
  nNOS/eNOS selectivity: 5.3
[3]; nNOS, iNOS and eNOS
  time-dependent inhibition of any of the isoforms: None
[3]; [4]
  Ki: 17 µM

## C#CCNC(=N)NCCC[C@H](N)C(=O)O [propargyl, N^ω -propargyl-L-arginine, reference compound]
[3]
  Ki: 0.43 µM

## N=C(NCCC[C@H](N)C(=O)N[C@@H](CN)C(=O)O)N[N+](=O)[O-] [L-nitroArg-L-Dpr, L-nitroArg-L-2,3-diaminopropanoic acid] (HELM PEPTIDE1{[N=C(NCCC[C@H](N)C(=O)[*:2])N[N+](=O)[O-]].[NC[C@H](N[*:1])C(=O)O]}$$$$V2.0)
[3]
  most potent inhibitors (based on isoform inhibition data): most potent

## N=C(NCCC[C@H](N)C(=O)N[C@H](CC(N)=O)C(N)=O)N[N+](=O)[O-] [L-nitroArg-D-Asn] (HELM PEPTIDE1{[N=C(NCCC[C@H](N)C(=O)[*:2])N[N+](=O)[O-]].[dN].[am]}$$$$V2.0)
[3]
  most potent inhibitors (based on isoform inhibition data): most potent

## N=C(NCCC[C@@H](NC(=O)[C@H](N)CCCCN)C(N)=O)N[N+](=O)[O-] [D-Lys-D-nitroArg] (HELM PEPTIDE1{[dK].[N=C(NCCC[C@@H](N[*:1])C(=O)[*:2])N[N+](=O)[O-]].[am]}$$$$V2.0)
[3]
  most potent inhibitors (based on isoform inhibition data): most potent

## N=C(NCCC[C@@H](NC(=O)[C@@H](N)Cc1cnc[nH]1)C(N)=O)N[N+](=O)[O-] [L-His-D-nitroArg] (HELM PEPTIDE1{H.[N=C(NCCC[C@@H](N[*:1])C(=O)[*:2])N[N+](=O)[O-]].[am]}$$$$V2.0)
[3]
  most potent inhibitors (based on isoform inhibition data): most potent

## CNC(=N)NCCC[C@H](N)C(=O)O [methyl, N^ω -methyl-L-arginine, reference compound]
[3]
  IC50: 10 µM

## N=C(NCCC[C@@H](NC(=O)[C@@H](N)CCCCN)C(N)=O)N[N+](=O)[O-] [L-Lys-D-nitroArg] (HELM PEPTIDE1{K.[N=C(NCCC[C@@H](N[*:1])C(=O)[*:2])N[N+](=O)[O-]].[am]}$$$$V2.0)
[3]
  most potent inhibitors (based on isoform inhibition data): most potent

## N=C(NCCC[C@H](N)C(=O)N[C@H](CCC(N)=O)C(N)=O)N[N+](=O)[O-] [L-nitroArg-D-Gln] (HELM PEPTIDE1{[N=C(NCCC[C@H](N)C(=O)[*:2])N[N+](=O)[O-]].[dQ].[am]}$$$$V2.0)
[3]
  most potent inhibitors (based on isoform inhibition data): most potent

## N=C(NCCC[C@@H](NC(=O)[C@H](N)CCCN)C(N)=O)N[N+](=O)[O-] [D-Orn-D-nitroArg] (HELM PEPTIDE1{[NCCC[C@@H](N)C(=O)[*:2]].[N=C(NCCC[C@@H](N[*:1])C(=O)[*:2])N[N+](=O)[O-]].[am]}$$$$V2.0)
[3]
  most potent inhibitors (based on isoform inhibition data): most potent

## N=C(NCCC[C@H](N)C(=O)N[C@@H](CCN)C(=O)O)N[N+](=O)[O-] [L-nitroArg-L-Dbu, L-nitroArg-L-2,4-diaminobutanoic acid] (HELM PEPTIDE1{[N=C(NCCC[C@H](N)C(=O)[*:2])N[N+](=O)[O-]].[Dab]}$$$$V2.0)
[3]
  most potent inhibitors (based on isoform inhibition data): most potent
